{"source": "patent US8741856B2", "about": "“Avermectins and milbemycins for the treatment, prevention or amelioration of flavivirus infections” (priority 2009, dated 2014)", "key": {"Herpesvirus 1 (HSV-1)": {"tested_on": "Herpesvirus 1 (HSV-1)", "assay_type": "cell-based", "conditions": "read-out: concentration required to reduce the plaque number by 50%, HSV-1"}, "Vaccinia Virus (VV)": {"tested_on": "Vaccinia Virus (VV)", "assay_type": "cell-based", "conditions": "read-out: concentration required to reduce the plaque number by 50%, VV"}, "TBEV strain Oshima 5-10 [1]": {"tested_on": "TBEV strain Oshima 5-10", "assay_type": "cell-based, Tick-borne encephalitis virus"}, "[2]": {"tested_on": "Vesicular Stomatitis Virus (VSV)", "assay_type": "cell-based", "conditions": "read-out: concentration required to reduce the plaque number by 50%, VSV"}, "[3]": {"conditions": "previous studies, Guzzo C A et al. 2002; cited from earlier work"}, "[4]": {"tested_on": "Yellow fever virus (YFV) 17D vaccine strain", "assay_type": "cell-based", "conditions": "read-out: EC50, anti-YFV, CPE reduction assay"}, "[5]": {"tested_on": "VERO-76 (Monkey normal kidney) monolayers"}, "Poliovirus 1 (Sb-1)": {"tested_on": "Poliovirus 1 (Sb-1)", "assay_type": "cell-based", "conditions": "read-out: concentration required to reduce the plaque number by 50%, Sb-1"}, "[6]": {"tested_on": "BHK cells (Hamster normal kidney fibroblast)"}, "[7]": {"tested_on": "Respiratory Syncytial Virus (RSV)", "assay_type": "cell-based", "conditions": "read-out: concentration required to reduce the plaque number by 50%, RSV"}, "Reovirus-1 (Reo-1)": {"tested_on": "Reovirus-1 (Reo-1)", "assay_type": "cell-based", "conditions": "read-out: concentration required to achieve 50% protection from Reovirus-1 induced cytopathogenicity"}, "Modoc (MODV) strain M544": {"tested_on": "Modoc (MODV) strain M544", "assay_type": "cell-based, Modoc virus", "conditions": "read-out: EC50, anti-MODV, virus yield reduction assay"}, "JEV strain SA-14 [8]": {"tested_on": "JEV strain SA-14", "assay_type": "cell-based, Japanese encephalitis virus", "conditions": "read-out: EC50, JEV, virus yield assay"}, "[9]": {"tested_on": "Coxsackievirus B2 (CVB-2)", "assay_type": "cell-based", "conditions": "read-out: concentration required to reduce the plaque number by 50%, CVB-2"}, "YFV [10]": {"tested_on": "YFV", "assay_type": "cell-based, Yellow fever virus", "conditions": "read-out: EC50, anti-YFV, virus yield reduction assay"}, "[11]": {"tested_on": "MDBK (Bovine normal kidney) cells"}, "JEV strain SA-14 [12]": {"tested_on": "JEV strain SA-14", "assay_type": "cell-based, Japanese encephalitis virus"}, "[13]": {"tested_on": "Dengue subgenomic replicons", "test": "Anti-DENV activity in BHK cells containing Dengue subgenomic replicons", "assay_type": "cell-based, Dengue virus"}, "TBEV strain Oshima 5-10 [14]": {"tested_on": "TBEV strain Oshima 5-10", "assay_type": "cell-based, Tick-borne encephalitis virus", "conditions": "read-out: EC50, TBEV, virus yield assay"}, "[15]": {"tested_on": "Bovine viral diharrea virus (BVDV)", "assay_type": "cell-based", "conditions": "read-out: concentration required to achieve 50% protection from BVDV induced cytopathogenicity"}, "[16]": {"tested_on": "Dengue virus (DENV) serotype 2 New Guinea C (NGC) strain", "assay_type": "cell-based", "conditions": "read-out: EC50, anti-DENV, virus yield reduction assay"}, "YFV [17]": {"tested_on": "YFV", "conditions": "rhesus monkey, in vivo; cited from earlier work"}, "DENV type 1": {"tested_on": "DENV type 1", "conditions": "rhesus monkeys infected with DENV type 1, therapeutic and prophylactic protocols; cited from earlier work"}}, "note": "Values joined by “and” are separate entries in the source; they are usually repeats but may differ in a detail not shown here. Identical values can stand only once. Like-named read-outs stand apart in the source and are kept apart here.", "data": [{"compound": "ivermectin", "values": [{"measurement": "EC50", "setting": "Herpesvirus 1 (HSV-1)", "result": "> 6000", "unit": "nM"}, {"measurement": "EC50", "setting": "Vaccinia Virus (VV)", "result": "> 6000", "unit": "nM"}, {"measurement": "EC50", "setting": "TBEV strain Oshima 5-10 [1]; read-out: EC50, TBEV, viral titer reduction assay", "result": 200, "unit": "nM"}, {"measurement": "EC50", "setting": "TBEV strain Oshima 5-10 [1]; read-out: EC50, TBEV, viral titration on BHK21 cells", "result": 200, "unit": "nM"}, {"measurement": "EC50", "setting": "[2]", "result": "> 6000", "unit": "nM"}, {"measurement": "dose that can be safely employed", "setting": "[3]", "result": "up to 10 times the highest FDA-approved dose of 200 μg/kg"}, {"measurement": "EC50", "setting": "[4]", "result": "7.4 nM and 10.3 nM"}, {"measurement": "concentration required to reduce the viability of VERO 76 monolayers by 50%", "setting": "[5]", "result": 6, "unit": "µM"}, {"measurement": "EC50", "setting": "Poliovirus 1 (Sb-1)", "result": "> 6000", "unit": "nM"}, {"measurement": "concentration required to reduce the viability of BHK monolayers by 50%", "setting": "[6]", "result": 1.5, "unit": "µM"}, {"measurement": "EC50", "setting": "[7]", "result": "> 6000", "unit": "nM"}, {"measurement": "EC50", "setting": "Reovirus-1 (Reo-1)", "result": "> 1500", "unit": "nM"}, {"measurement": "EC50", "setting": "Modoc (MODV) strain M544", "result": 730, "unit": "nM"}, {"measurement": "EC50", "setting": "JEV strain SA-14 [8]", "result": "100 to 1000", "unit": "nM"}, {"measurement": "EC50", "setting": "[9]", "result": "> 6000", "unit": "nM"}, {"measurement": "EC50", "setting": "YFV [10]", "result": 4.9, "unit": "nM"}, {"measurement": "concentration required to reduce the viability of MDBK cells by 50%", "setting": "[11]", "result": 11, "unit": "µM"}, {"measurement": "EC50", "setting": "JEV strain SA-14 [12]; read-out: EC50, JEV, viral titer reduction assay", "result": 300, "unit": "nM"}, {"measurement": "EC50", "setting": "JEV strain SA-14 [12]; read-out: EC50, JEV, viral titration on BHK21 cells", "result": 300, "unit": "nM"}, {"measurement": "anti-DENV activity in replicon cells", "setting": "[13]", "result": "possess anti-DENV activity"}, {"measurement": "EC50", "setting": "TBEV strain Oshima 5-10 [14]", "result": "100 to 1000", "unit": "nM"}, {"measurement": "EC50", "setting": "[15]", "result": "~1500", "unit": "nM"}, {"measurement": "EC50", "setting": "[16]", "result": 710, "unit": "nM"}]}, {"compound": "NC(=O)c1ncn([C@@H]2O[C@H](CO)[C@@H](O)[C@H]2O)n1", "note": "[ribavirin, 1-beta-D-ribofuranosyl-1,2,4-triazole-3-carboxamide]", "values": [{"measurement": "effect on viremia or survival", "setting": "YFV [17]", "result": "no effect on viremia or survival was observed"}, {"measurement": "effect on viremia or survival", "setting": "DENV type 1", "result": "no effect on viremia or survival was observed"}]}]}
